Test results published in US10975384B2, “PYL9 and uses thereof” (PURDUE RESEARCH FOUNDATION, priority 2015, dated 2021).

Key:
[1] = system: pRD29A::PYL9 transgenic plants; experiment: Drought resistance of pRD29A::PYL9 transgenic Arabidopsis with ABA treatment; format: in vivo; settings: 10 μM ABA applied once after water withheld for 12 d, plants after flowering
Method: Soil water content percentage during drought treatment in Arabidopsis was measured as described (27). We used 591-mL pots (48-7214; 04.00 SQ TL TW; Myers Industries) with 130 g (˜62 g oven dry weight) Fafard Super-Fine Germinating Mix Soil (Sungro Horticultures) per pot. After being saturated with water, the total weight of the wet soil was ˜440 g per pot. Pots were covered with plastic film to reduce water loss from soil surface. Three-week-old plants (four plants per pot) were subjected to drought stress by withholding water. Plants were sprayed with 2 mL 10 μM ABA plus 0.2% Tween-20 per pot after water was withheld for 12 d. Soil water content percentage was computed as total weight minus dry soil weight divided by water weight before drought according to the work (27). For drought treatment on rice, we measured the relative water content using the Soil Temperature/Moisture Meter L99-TWS-1 (Shanghai Fotel Precise Instrument Co., Ltd) following the work (40). Before drought treatment, the mixed vermiculite and sandy soil (Zhongfang Horticulture Co.) for rice was saturated with water, and the relative soil water content before drought was set as 100%. Rice plants at the four-leaf stage were subjected to drought by withholding water for 14 d, and the relative soil water content after the drought treatment was ˜20%.

SAG12-LUC expression = experiment: SAG12-LUC transient expression assay in Arabidopsis protoplasts; format: cell-based; settings: snrk2.2/3/6 triple-mutant protoplasts, ABA treatment
Method: Assays for transient expression in protoplasts were performed as described (18). All steps were performed at room temperature. SAG12-LUC and ORE1L-LUC were used as the senescence-responsive reporters, and ZmUBQ-GUS was used as the internal control. After transfection, protoplasts were incubated in washing and incubation solution without ABA or with 5 μM ABA under light for 16 h.

Arabidopsis plants = experiment: Osmotic potential measurements after ABA spray; format: in vivo; settings: developing bud tissue, 20 μM ABA spray, 2 d
Method: Plant samples were collected in a plastic centrifuge tube filter (without membrane; Corning Costar Spin-X) and then, quick-frozen in liquid nitrogen. After thawing, the sap was collected by centrifuging at 16,000×g for 4 min to remove insoluble material. A 10-μL volume of cell sap was measured using a vapor pressure osmometer (Model 5200; Wescor). Solute concentration was converted to osmotic potential (Ψπ) using the van't Hoff law: Ψπ=−RTc, where c is the molar solute concentration (osmolality; moles kilogram-1), R is the gas constant (0.08314 L Bar mol−1 K−1), and T is the temperature in Kelvin.

[2] = system: ORE1 and AtNAP expression; experiment: Quantitative RT-PCR of ORE1 and AtNAP in mature leaves after ABA; format: in vivo, Arabidopsis; settings: 20 μM ABA spray
Method: Northern blot and real-time PCR were performed as reported (18). For Northern blot analysis, the probe was labeled with the PCR-DIG Probe Synthesis Kit (Roche). RD29A-F (SEQ ID NO. 83) and PYL9-R (SEQ ID NO. 84) were used for the PCR. For real-time PCR, reactions were performed with iQ SYBR Green Supermix (BioRad). The primers used include SEQ ID NOs. 71 to 80. Quantitative RT-PCR was conducted on mature leaves of 4-wk-old Arabidopsis plants that were growing in soil and sprayed with 20 μM ABA.

**Q.** CC1=CC(=O)CC(C)(C)[C@@]1(O)/C=C/C(C)=C\C(=O)O [ABA, abscisic acid] was tested. Which drought resistance [1] did it give?
**A.** significantly increased

**Q.** What about the SAG12-LUC expression (SAG12-LUC expression) of the same compound?
**A.** not enhanced

**Q.** And the osmotic potential (Arabidopsis plants)?
**A.** reduced

**Q.** What about the “expression of ORE1 and AtNAP” value [2] of the same compound?
**A.** induced
